Data as given in the NIST ThermoML archive (doi:10.1016/j.jct.2010.08.021).
± gives the expanded uncertainty stated by the source.

Assay: mn = molality of the nth substance listed, in mol/kg
Conditions: 101 kPa, Liquid; for speed of sound: Sing-around technique in a fixed-path interferometer; for mass density: Vibrating tube method

N[C@@H](CO)C(=O)O [L-serine] + O
Conditions | mass density [kg/m3] | speed of sound [m/s]
288.15 K, m1 = 0.0192 | 999.979 ± 0.12 | 1467.9 ± 1.3
288.15 K, m1 = 0.028 | 1000.38 ± 0.12 | 1468.5 ± 1.3
288.15 K, m1 = 0.037 | 1000.78 ± 0.12 | 1468.9 ± 1.3
288.15 K, m1 = 0.043 | 1001.05 ± 0.12 | 1469.4 ± 1.3
288.15 K, m1 = 0.0486 | 1001.3 ± 0.12 | 1469.8 ± 1.3
288.15 K, m1 = 0.057 | 1001.68 ± 0.12 | 1470.3 ± 1.3
288.15 K, m1 = 0.0657 | 1002.07 ± 0.12 | 1470.9 ± 1.3
288.15 K, m1 = 0.0804 | 1002.73 ± 0.12 | 1471.8 ± 1.3
288.15 K, m1 = 0.0942 | 1003.34 ± 0.12 | 1472.7 ± 1.3
288.15 K, m1 = 0.1156 | 1004.3 ± 0.12 | 1474.1 ± 1.3
288.15 K, m1 = 0.1329 | 1005.07 ± 0.12 | 1475.2 ± 1.3
288.15 K, m1 = 0.1535 | 1005.99 ± 0.12 | 1476.6 ± 1.3
288.15 K, m1 = 0.1642 | 1006.46 ± 0.12 | 1477.3 ± 1.3
288.15 K, m1 = 0.1789 | 1007.11 ± 0.12 | 1478.3 ± 1.3
288.15 K, m1 = 0.1944 | 1007.8 ± 0.12 | 1479.2 ± 1.3
293.15 K, m1 = 0.0192 | 999.07 ± 0.12 | 1484 ± 1.3
293.15 K, m1 = 0.028 | 999.466 ± 0.12 | 1484.5 ± 1.3
293.15 K, m1 = 0.037 | 999.867 ± 0.12 | 1485 ± 1.3
293.15 K, m1 = 0.043 | 1000.13 ± 0.12 | 1485.4 ± 1.3
293.15 K, m1 = 0.0486 | 1000.38 ± 0.12 | 1485.8 ± 1.3
293.15 K, m1 = 0.057 | 1000.75 ± 0.12 | 1486.3 ± 1.3
293.15 K, m1 = 0.0657 | 1001.14 ± 0.12 | 1486.8 ± 1.3
293.15 K, m1 = 0.0804 | 1001.79 ± 0.12 | 1487.8 ± 1.3
293.15 K, m1 = 0.0942 | 1002.4 ± 0.12 | 1488.7 ± 1.3
293.15 K, m1 = 0.1156 | 1003.35 ± 0.12 | 1490 ± 1.3
293.15 K, m1 = 0.1329 | 1004.11 ± 0.12 | 1491.1 ± 1.3
293.15 K, m1 = 0.1535 | 1005.02 ± 0.12 | 1492.4 ± 1.3
293.15 K, m1 = 0.1642 | 1005.49 ± 0.12 | 1493.1 ± 1.3
293.15 K, m1 = 0.1789 | 1006.13 ± 0.12 | 1494 ± 1.3
293.15 K, m1 = 0.1944 | 1006.81 ± 0.11 | 1495 ± 1.3
298.15 K, m1 = 0.0192 | 997.9 ± 0.12 | 1498.2 ± 1.2
298.15 K, m1 = 0.028 | 998.291 ± 0.12 | 1498.8 ± 1.2
298.15 K, m1 = 0.037 | 998.691 ± 0.12 | 1499.2 ± 1.2
298.15 K, m1 = 0.043 | 998.951 ± 0.12 | 1499.6 ± 1.2
298.15 K, m1 = 0.0486 | 999.198 ± 0.12 | 1500 ± 1.2
298.15 K, m1 = 0.057 | 999.564 ± 0.12 | 1500.5 ± 1.2
298.15 K, m1 = 0.0657 | 999.952 ± 0.12 | 1501 ± 1.2
298.15 K, m1 = 0.0804 | 1000.6 ± 0.12 | 1501.9 ± 1.2
298.15 K, m1 = 0.0942 | 1001.2 ± 0.12 | 1502.7 ± 1.2
298.15 K, m1 = 0.1156 | 1002.14 ± 0.12 | 1504 ± 1.2
298.15 K, m1 = 0.1329 | 1002.89 ± 0.12 | 1505.1 ± 1.2
298.15 K, m1 = 0.1535 | 1003.79 ± 0.12 | 1506.4 ± 1.2
298.15 K, m1 = 0.1642 | 1004.26 ± 0.12 | 1507 ± 1.2
298.15 K, m1 = 0.1789 | 1004.89 ± 0.12 | 1507.9 ± 1.2
298.15 K, m1 = 0.1944 | 1005.57 ± 0.12 | 1508.8 ± 1.2
303.15 K, m1 = 0.0192 | 996.495 ± 0.12 | 1510.5 ± 1.2
303.15 K, m1 = 0.028 | 996.883 ± 0.12 | 1511.1 ± 1.2
303.15 K, m1 = 0.037 | 997.277 ± 0.12 | 1511.5 ± 1.2
303.15 K, m1 = 0.043 | 997.539 ± 0.12 | 1511.9 ± 1.2
303.15 K, m1 = 0.0486 | 997.781 ± 0.12 | 1512.3 ± 1.2
303.15 K, m1 = 0.057 | 998.143 ± 0.12 | 1512.8 ± 1.2
303.15 K, m1 = 0.0657 | 998.53 ± 0.12 | 1513.2 ± 1.2
303.15 K, m1 = 0.0804 | 999.17 ± 0.12 | 1514.1 ± 1.2
303.15 K, m1 = 0.0942 | 999.763 ± 0.12 | 1514.9 ± 1.2
303.15 K, m1 = 0.1156 | 1000.7 ± 0.12 | 1516.2 ± 1.2
303.15 K, m1 = 0.1329 | 1001.45 ± 0.12 | 1517.2 ± 1.2
303.15 K, m1 = 0.1535 | 1002.34 ± 0.12 | 1518.5 ± 1.2
303.15 K, m1 = 0.1642 | 1002.8 ± 0.12 | 1519.1 ± 1.2
303.15 K, m1 = 0.1789 | 1003.43 ± 0.12 | 1520 ± 1.2
303.15 K, m1 = 0.1944 | 1004.1 ± 0.12 | 1520.8 ± 1.2
308.15 K, m1 = 0.0192 | 994.871 ± 0.12 | 1521.2 ± 1.2
308.15 K, m1 = 0.028 | 995.258 ± 0.12 | 1521.7 ± 1.2
308.15 K, m1 = 0.037 | 995.648 ± 0.12 | 1522.1 ± 1.2
308.15 K, m1 = 0.043 | 995.908 ± 0.12 | 1522.5 ± 1.2
308.15 K, m1 = 0.0486 | 996.152 ± 0.12 | 1522.9 ± 1.2
308.15 K, m1 = 0.057 | 996.512 ± 0.12 | 1523.4 ± 1.2
308.15 K, m1 = 0.0657 | 996.896 ± 0.12 | 1523.8 ± 1.2
308.15 K, m1 = 0.0804 | 997.529 ± 0.12 | 1524.7 ± 1.2
308.15 K, m1 = 0.0942 | 998.119 ± 0.12 | 1525.5 ± 1.2
308.15 K, m1 = 0.1156 | 999.047 ± 0.12 | 1526.7 ± 1.2
308.15 K, m1 = 0.1329 | 999.793 ± 0.12 | 1527.7 ± 1.2
308.15 K, m1 = 0.1535 | 1000.68 ± 0.12 | 1528.9 ± 1.2
308.15 K, m1 = 0.1642 | 1001.14 ± 0.12 | 1529.5 ± 1.2
308.15 K, m1 = 0.1789 | 1001.76 ± 0.12 | 1530.3 ± 1.2
308.15 K, m1 = 0.1944 | 1002.43 ± 0.12 | 1531.2 ± 1.2
313.15 K, m1 = 0.0192 | 993.05 ± 0.12 | 1530.3 ± 1.2
313.15 K, m1 = 0.028 | 993.434 ± 0.12 | 1530.8 ± 1.2
313.15 K, m1 = 0.037 | 993.821 ± 0.12 | 1531.2 ± 1.2
313.15 K, m1 = 0.043 | 994.079 ± 0.12 | 1531.6 ± 1.2
313.15 K, m1 = 0.0486 | 994.322 ± 0.12 | 1532 ± 1.2
313.15 K, m1 = 0.057 | 994.68 ± 0.12 | 1532.4 ± 1.2
313.15 K, m1 = 0.0657 | 995.061 ± 0.12 | 1532.8 ± 1.2
313.15 K, m1 = 0.0804 | 995.691 ± 0.12 | 1533.7 ± 1.2
313.15 K, m1 = 0.0942 | 996.279 ± 0.12 | 1534.4 ± 1.2
313.15 K, m1 = 0.1156 | 997.203 ± 0.12 | 1535.7 ± 1.2
313.15 K, m1 = 0.1329 | 997.943 ± 0.12 | 1536.6 ± 1.2
313.15 K, m1 = 0.1535 | 998.827 ± 0.12 | 1537.8 ± 1.2
313.15 K, m1 = 0.1642 | 999.283 ± 0.12 | 1538.4 ± 1.2
313.15 K, m1 = 0.1789 | 999.905 ± 0.12 | 1539.2 ± 1.2
313.15 K, m1 = 0.1944 | 1000.57 ± 0.12 | 1540 ± 1.2
